As usually defined, the pIC50 is the negative decadic logarithm of the IC50, by convention in mol/L. By inhibition is commonly meant the share of the control response that was lost under treatment.

pIC50: −log10 of the molar value.

The source of these data is ChEMBL document CHEMBL1141768, “Constituents of Vittaria anguste-elongata and their biological activities” (J Nat Prod, 2005).

Assay type in all cases: functional
The subject of experiment [1] is Radical scavenging activity. The experiment is described as follows: Antioxidant activity assessed as DPPH free radical scavenging activity after 30 mins.
For the next experiment, the system named is NCI-H460. Briefly: Cytotoxicity against human NCI-H460 cells at 58 uM.
The test system of the next experiment is SF-268. Briefly: Cytotoxicity against human SF268 cells at 58 uM.

With VITAMIN E, the pIC50 in experiment [1] is 3.46.
As for `CCOC(=O)[C@]1(O)C[C@@H](O)[C@H](OC(=O)/C=C/c2ccc(O)c(O)c2)[C@H](O)C1`, in experiment [1], the pIC50 was 3.63.
In the case of `COc1cc(-c2cc(=O)c3c(O)cc(O)cc3o2)cc(OC)c1OC`, the results for the inhibition at 58 µM with NCI-H460 and with SF-268 were 89% and 61%, respectively.
For the compound `O=C(/C=C/c1ccc(O)c(O)c1)OC[C@H](O)[C@H]1OC(=O)[C@H](O)[C@H]1O`, in experiment [1], the pIC50 was 4.04.
Turning to `C[C@H]1OC(=O)[C@@H](O)[C@@H]1OC(=O)/C=C/c1ccc(O)c(O)c1`, the pIC50 in experiment [1] is 3.54.
